Some test systems named below: HOP-62 NSCLC; UACC-62 melanoma; SNB-19 CNS; M14 melanoma; SF-539 CNS; BT-549 breast; SN12C renal; NCI/ADR-RES ovarian; OVCAR-5 ovarian; K-562 leukemia.
What all share (assay): growth of human tumour cells (NCI), 48 h

The record followed here is PubChem BioAssay (NCI).

SMILES strings stand for the structures.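 Values below derive from 48-hour exposures of cells grown in 96-well plates, with endpoints linearly interpolated between the two concentrations bracketing the appropriate inhibition level. GI50 marks 50% less growth. At the TGI there is no net growth.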

`Cc1cc(S(=O)(=O)Nc2nc3cscc3c(=O)n2Cc2ccccc2)c(S)cc1Cl`: the GI50 was 16.5 µM in the assay with HOP-62 NSCLC; 50.5 µM in the assay with UACC-62 melanoma; 29.1 µM in the assay on SNB-19 CNS; 61.3 µM in the assay with M14 melanoma; 32.1 µM in the assay with SF-539 CNS; 81.1 µM in the assay on BT-549 breast. Besides, the GI50 was 16.6 µM in the assay with SN12C renal, 53.4 µM in the assay with NCI/ADR-RES ovarian, 87.1 µM in the assay on OVCAR-5 ovarian and 74.1 µM in the assay on K-562 leukemia. Also, the TGI in the assay on HOP-62 NSCLC is 39.3 µM; in the assay on UACC-62 melanoma, over 100 µM; in the assay with SNB-19 CNS it was over 100 µM; in the assay with M14 melanoma it was over 100 µM; in the assay with SF-539 CNS it was over 100 µM; in the assay with BT-549 breast, over 100 µM. In addition, the TGI with SN12C renal is 54.5 µM; with NCI/ADR-RES ovarian it was over 100 µM; with OVCAR-5 ovarian, over 100 µM; in the assay on K-562 leukemia it was over 100 µM.

In the case of `COC(=O)CCc1c[nH]c2ccc(N(CCCl)CCCl)cc12`, the GI50 in the assay with HOP-62 NSCLC is 1.04 µM; in the assay with UACC-62 melanoma it was 1.72 µM; with SNB-19 CNS, 3.43 µM; in the assay on M14 melanoma, 1.73 µM; with SF-539 CNS, 0.486 µM; in the assay with BT-549 breast, 8.52 µM. Moreover, the GI50 in the assay on SN12C renal is 0.688 µM; in the assay on NCI/ADR-RES ovarian, 2.3 µM; with OVCAR-5 ovarian, 5.32 µM; in the assay with K-562 leukemia, 9.68 µM. Besides, the TGI is 16.5 µM in the assay with HOP-62 NSCLC; 16.6 µM in the assay with UACC-62 melanoma; over 76.2 µM in the assay on SNB-19 CNS; 11.5 µM in the assay with M14 melanoma; 4.69 µM in the assay with SF-539 CNS; 41.5 µM in the assay with BT-549 breast. Besides, the TGI with SN12C renal is 36.4 µM; with NCI/ADR-RES ovarian, over 56.8 µM; with OVCAR-5 ovarian, 46.1 µM; in the assay with K-562 leukemia, over 100 µM.

`COC(=O)[C@@H](C)C[C@H](Cc1ccccc1)NC(=O)c1csc(CC[C@H](C(C)C)N(C)C(=O)[C@@H](NC(=O)[C@H]2CCCCN2C)C(C)C)n1`: the GI50 is 0.536 µM in the assay on HOP-62 NSCLC; 0.14 µM in the assay with UACC-62 melanoma; 0.168 µM in the assay with SNB-19 CNS; 0.262 µM in the assay on M14 melanoma; 0.444 µM in the assay with SF-539 CNS; 0.179 µM with BT-549 breast. Also, the GI50 was 0.435 µM with SN12C renal, 3.46 µM with NCI/ADR-RES ovarian, 1.26 µM in the assay with OVCAR-5 ovarian and 0.131 µM in the assay with K-562 leukemia. For the same molecule, the TGI in the assay on HOP-62 NSCLC is over 33.3 µM; in the assay on UACC-62 melanoma, over 33.3 µM; with SNB-19 CNS, over 33.3 µM; with M14 melanoma it was 1.52 µM; with SF-539 CNS, 1.91 µM; in the assay on BT-549 breast, 3.81 µM. Besides, the TGI in the assay with SN12C renal, in the assay with NCI/ADR-RES ovarian, in the assay on OVCAR-5 ovarian and with K-562 leukemia was over 33.3 µM throughout.

On to `O=c1c(Oc2ccc(F)cc2F)cc2cnc(NC3CCOCC3)nc2n1CCCO`, for which the GI50 in the assay on HOP-62 NSCLC, in the assay with UACC-62 melanoma, with SNB-19 CNS, in the assay with M14 melanoma, with SF-539 CNS and in the assay on BT-549 breast was over 25 µM each time. The GI50 in the assay on SN12C renal, with NCI/ADR-RES ovarian, with OVCAR-5 ovarian and in the assay on K-562 leukemia was over 25 µM each time. Moreover, the TGI with HOP-62 NSCLC, with UACC-62 melanoma, with SNB-19 CNS, in the assay with M14 melanoma, with SF-539 CNS and with BT-549 breast was over 25 µM each time. Moreover, the TGI with SN12C renal, with NCI/ADR-RES ovarian, in the assay with OVCAR-5 ovarian and in the assay with K-562 leukemia was over 25 µM in each case.

Consider `OCc1ccc(-c2ccc(-c3ccc(CO)o3)[se]2)o1`, for which the GI50 was over 80.4 µM in the assay with HOP-62 NSCLC; 8.72 µM with UACC-62 melanoma; over 100 µM in the assay with SNB-19 CNS; 57.8 µM in the assay with M14 melanoma; over 100 µM with SF-539 CNS; 46.4 µM in the assay with BT-549 breast. In addition, the GI50 is over 100 µM with SN12C renal, over 60.9 µM with NCI/ADR-RES ovarian, 0.629 µM with OVCAR-5 ovarian and 38.1 µM with K-562 leukemia. Further, the TGI in the assay on HOP-62 NSCLC, in the assay with UACC-62 melanoma, in the assay with SNB-19 CNS, in the assay on M14 melanoma, with SF-539 CNS and in the assay with BT-549 breast was over 100 µM each time. The TGI in the assay on SN12C renal, with NCI/ADR-RES ovarian, with OVCAR-5 ovarian and with K-562 leukemia was over 100 µM in each case.

For `Cc1nn(-c2nc3ccccc3[nH]2)c(N)c1-c1ccc(Cl)cc1`, the GI50 in the assay on HOP-62 NSCLC is 7.29 µM; in the assay with UACC-62 melanoma, 5.9 µM; in the assay with SNB-19 CNS, 4.14 µM; with M14 melanoma, 6.68 µM; in the assay with SF-539 CNS, 5.89 µM; with BT-549 breast it was 12.9 µM. Further, the GI50 in the assay on SN12C renal is 5.52 µM; in the assay on NCI/ADR-RES ovarian it was 4.84 µM; with OVCAR-5 ovarian, 46.7 µM; in the assay with K-562 leukemia, 3.55 µM. In addition, the TGI in the assay on HOP-62 NSCLC, with UACC-62 melanoma, in the assay on SNB-19 CNS, in the assay on M14 melanoma, with SF-539 CNS and with BT-549 breast was over 100 µM throughout. The TGI with SN12C renal, in the assay with NCI/ADR-RES ovarian, in the assay with OVCAR-5 ovarian and with K-562 leukemia was over 100 µM in each case.
